The structures appear in SMILES notation.

This assay has as its system pig model of obstructive sleep apnea (OSA). Put plainly: pig model of obstructive sleep apnea (OSA): collapsibility of the upper respiratory tract under negative pressure. It counts as in vivo, German Landrace pigs. From the text: The therapeutic potential of the combination of a TASK1/3 channel blocker with a muscarinic receptor antagonist according to the present invention in sleep apnea can be assessed preclinically in a pig model of obstructive sleep apnea (OSA).
Using negative pressure, it is possible to induce collapse and thus obstruction of the upper respiratory tract in anaesthetized, spontaneously breathing pigs (Wirth K. J. et al., Sleep 36(5) (2013) pp. 699-708).
German Landrace pigs are used for the model. The pigs are anaesthetized and tracheotomized. Two tracheal cannulas are inserted into the trachea, one into the rostral part and the other into the caudal part of the trachea.
Using a connection piece, the rostral cannula is connected to a tube to the negative pressure device and to the distal tracheal cannula. The distal tracheal cannula is additionally connected to a tube with an open end to atmosphere via a connection piece that served for free tracheal breathing, circumventing the upper airway. By appropriate opening and clamping of those tubes breathing can be switched from nasal breathing to breathing through the caudal tracheal cannula, circumventing the upper airway, and the (isolated) upper airway can be connected to the negative pressure device, causing airflow in the inspiratory direction.
At certain points in time, the collapsibility of the upper respiratory tract is tested by having the pig breathe via the caudal cannula and applying negative pressures of −50, −100 and −150 cm water head (cm H2O) to the upper respiratory tract. This causes the upper respiratory tract to collapse, which manifests itself in an interruption of the airflow and a pressure drop in the tube system. This test is conducted prior to the administration of the test substance and at certain intervals after the administration of the test substance. An appropriately effective test substance can prevent this collapse of the respiratory tract in the inspiratory phase.

The mark [1] stands for this setting: TASK1/TASK3 channel blocker alone, intranasal 0.3 μg, given at 0 min, time 0 min.
The mark [2] stands for this setting: TASK1/TASK3 channel blocker alone, intranasal 0.3 μg, given at 0 min, time 10 min.
[3] abbreviates: TASK1/TASK3 channel blocker alone, intranasal 0.3 μg, given at 0 min, time 30 min.
The mark [4] stands for this setting: TASK1/TASK3 channel blocker alone, intranasal 0.3 μg, given at 0 min, time 60 min.
The mark [5] stands for this setting: TASK1/TASK3 channel blocker alone, intranasal 0.3 μg, given at 0 min, time 90 min.
The mark [6] stands for this setting: R-oxybutynin i.v. bolus 1 mg/kg then i.v. infusion 0.275 mg/kg/h for four hours, given at 0 min, time 0 min.
Setting [7] is: R-oxybutynin i.v. bolus 1 mg/kg then i.v. infusion 0.275 mg/kg/h for four hours, given at 0 min, time 10 min.
Where [8] appears, read: R-oxybutynin i.v. bolus 1 mg/kg then i.v. infusion 0.275 mg/kg/h for four hours, given at 0 min, time 30 min.
Where [9] appears, read: R-oxybutynin i.v. bolus 1 mg/kg then i.v. infusion 0.275 mg/kg/h for four hours, given at 0 min, time 60 min.
Setting [10] is: R-oxybutynin i.v. bolus 1 mg/kg then i.v. infusion 0.275 mg/kg/h for four hours, given at 0 min, time 120 min.
Setting [11] is: R-oxybutynin i.v. bolus 1 mg/kg then i.v. infusion 0.275 mg/kg/h for four hours, given at 0 min, time 180 min.
Setting [12] is: R-oxybutynin i.v. bolus 1 mg/kg then i.v. infusion 0.275 mg/kg/h for four hours, given at 0 min, time 240 min.
Setting [13] is: R-oxybutynin i.v. bolus 1 mg/kg then i.v. infusion 0.275 mg/kg/h for four hours, given at 0 min, time 300 min.
[14] abbreviates: combination experiment: R-oxybutynin i.v. bolus 1 mg/kg then infusion 0.275 mg/kg/h for four hours at 0 min, nasal TASK1/3 channel blocker only given at 120 min, time 0 min.
The mark [15] stands for this setting: combination experiment: R-oxybutynin i.v. bolus 1 mg/kg then infusion 0.275 mg/kg/h for four hours at 0 min, nasal TASK1/3 channel blocker only given at 120 min, time 10 min.
[16] abbreviates: combination experiment: R-oxybutynin i.v. bolus 1 mg/kg then infusion 0.275 mg/kg/h for four hours at 0 min, nasal TASK1/3 channel blocker only given at 120 min, time 30 min.
[17] abbreviates: combination experiment: R-oxybutynin i.v. bolus 1 mg/kg then infusion 0.275 mg/kg/h for four hours at 0 min, nasal TASK1/3 channel blocker only given at 120 min, time 60 min.
[18] abbreviates: combination experiment: R-oxybutynin i.v. bolus 1 mg/kg then infusion 0.275 mg/kg/h for four hours at 0 min, nasal TASK1/3 channel blocker only given at 120 min, time 90 min.
The mark [19] stands for this setting: combination experiment: R-oxybutynin i.v. bolus 1 mg/kg then infusion 0.275 mg/kg/h for four hours at 0 min, time 120 min = time of nasal application of TASK1/3 channel blocker.
[20] abbreviates: oxybutynin i.v. bolus 1 mg/kg then i.v. infusion 0.275 mg/kg/h for four hours, given at 0 min, time 0 min.

Consider `COc1ccc(Cl)c(C(=O)N2C3CCC2CN(Cc2c(-c4ccc(C(C)C)cc4)nc4ncccn24)C3)n1` [(3-Chloro-6-methoxypyridin-2-yl)(3-{[2-(4-isopropylphenyl)imidazo[1,2-a]pyrimidin-3-yl]methyl}-3,8-diazabicyclo[3.2.1]oct-8-yl)methanone], for which, under “TASK1/TASK3 channel blocker alone, 0.3 μg”, the “effect of the dose on upper airway collapsibility” value was “non effective dose”. In addition, the “Percent pigs without collaps −50 cm H2O, %” value is 0% under setting [1]; 33% under setting [2]; 0% under setting [3]; 0% under setting [4]; 0% under setting [5]. The “Percent pigs without collaps −100 cm H2O, %” value is recorded as 0% under setting [1]; 33% under setting [2]; 0% under setting [3]; 0% under setting [4]; 0% under setting [5]. For the same molecule, the “Percent pigs without collaps −150 cm H2O, %” value came to 0% under setting [1]; 0% under setting [2]; 0% under setting [3]; 0% under setting [4]; 0% under setting [5].

Take `CCN(CC)CC#CCOC(=O)[C@](O)(c1ccccc1)C1CCCCC1` [R-oxybutynin, R-Oxybutynin]: the “time points at which upper airway collapsibility was inhibited at all negative pressures of −50, −100 and −150 cm head (cm H2O) in all pigs” value (R-Oxybutynin i.v. bolus 1 mg/kg then i.v. infusion 0,275 mg/kg/h for four hours) is on record as “at no time”. The “upper airway collapsibility at the negative pressure of −50 cm head (cm H2O)” value (R-Oxybutynin i.v. bolus 1 mg/kg then i.v. infusion 0,275 mg/kg/h for four hours, time point 60 min after intravenous administration) is recorded as “inhibited”. Besides, the “Percent pigs without collaps −50 cm H2O, %” value is, setting by setting: under setting [6], 0%; under setting [7], 0%; under setting [8], 0%; under setting [9], 100%; under setting [10], 0%; under setting [11], 0%. The “Percent pigs without collaps −50 cm H2O, %” value runs as follows: under setting [12], 0%; under setting [13], 0%; under setting [14], 0%; under setting [15], 0%; under setting [16], 0%; under setting [17], 100%. For the same molecule, the “Percent pigs without collaps −50 cm H2O, %” value is 0% under setting [18] and 0% under setting [19]. Moreover, the “Percent pigs without collaps −100 cm H2O, %” value under setting [6] amounted to 0%; the “Percent pigs without collaps −100 cm H2O, %” value under setting [7] amounted to 0%; the “Percent pigs without collaps −100 cm H2O, %” value under setting [8] came to 0%; the “Percent pigs without collaps −100 cm H2O, %” value under setting [9] turned out to be 50%; the “Percent pigs without collaps −100 cm H2O, %” value under setting [10] is on record as 0%; the “Percent pigs without collaps −100 cm H2O, %” value under setting [11] worked out at 0%. For the same molecule, the “Percent pigs without collaps −100 cm H2O, %” value is 0% under setting [12]; 0% under setting [13]; 0% under setting [14]; 0% under setting [15]; 0% under setting [16]; 33% under setting [17]. Moreover, the “Percent pigs without collaps −100 cm H2O, %” value reads like this: under setting [18], 0%; under setting [19], 0%. Also, the “Percent pigs without collaps −150 cm H2O, %” value is recorded as 0% under setting [6]; 0% under setting [7]; 0% under setting [8]; 0% under setting [9]; 0% under setting [10]; 0% under setting [11]. Further, the “Percent pigs without collaps −150 cm H2O, %” value is, setting by setting: under setting [12], 0%; under setting [13], 0%; under setting [14], 0%; under setting [15], 0%; under setting [16], 0%; under setting [17], 0%. For the same molecule, the “Percent pigs without collaps −150 cm H2O, %” value reads like this: under setting [18], 0%; under setting [19], 0%.

In the case of `CCN(CC)CC#CCOC(=O)C(O)(c1ccccc1)C1CCCCC1` (stereo not shown) [oxybutynin, Oxybutynin], under setting [20], the “Percent pigs without collaps −50 cm H2O, %” value came out at 0%; the “Percent pigs without collaps −100 cm H2O, %” value is on record as 0%; the “Percent pigs without collaps −150 cm H2O, %” value worked out at 0%. Also, the “time points at which upper airway collapsibility was inhibited at all three negative pressures of −50, −100 and −150 cm head (cm H2O) in all pigs” value (oxybutynin i.v. bolus 1 mg/kg then i.v. infusion 0,275 mg/kg/h for four hours) is reported as “at no time point”.

Source of the values: patent publication US20250057846A1, “COMBINATION OF A TASK1/3 CHANNEL BLOCKER WITH A MUSCARINIC RECEPTOR ANTAGONIST FOR THE TREATMENT OF SLEEP APNEA” (BAYER AKTIENGESELLSCHAFT, priority 2021, published 2025).
